Where a name gives a salt, the structure may show the parent alone.
Tests used:
prolactin = experiment: inhibition of prolactin secretion in reserpine-treated male rats (serum prolactin); assay type: in vivo, rat (Sprague-Dawley); details: intraperitoneal, one hour after treatment, reserpine-pretreated rats
Description: Adult male rats of the Sprague-Dawley strain weighing about 200 g. were housed in an air-conditioned room with controlled lighting (lights on 6 a.m.-8 p.m.) and fed lab chow and water ad libitum. Each rat received an intraperitoneal injection of 2.0 mg. of reserpine in aqueous suspension 18 hours before administration of the test drug. The purpose of the reserpine was to keep prolactin levels uniformly elevated. The compounds under test were dissolved in 10 percent ethanol, and were injected intraperitoneally at doses of 50 mcg/kg and 0.5 and 5 mg/kg. Each compound was administered at each dose level to a group of 10 rats, and a control group of 10 intact males received an equivalent amount of 10 percent ethanol. One hour after treatment, all rats were killed by decapitation, and 150 μl aliquots of serum were assayed for prolactin.

[1] = test system: 6-hydroxydopamine-lesioned rats; experiment: turning behavior in 6-hydroxydopamine-lesioned rats (rat turning test, Parkinsonism); assay type: in vivo; details: intraperitoneal; for Average Number of Turns/rat: first 15 minutes after end of latency period
Description: In this test, nigroneostriatal-lesioned rats are employed, as prepared by the procedure of Ungerstedt and Arbuthnott, Brain Res, 24, 485 (1970). A compound having dopamine agonist activity causes the rats to turn in circles contralateral to the side of the lesion. After a latency period, which varies from compound to compound, the number of turns is counted over a 15-minute period.
The compounds were dissolved in water and the aqueous solution injected into the rat by the intraperitoneal route at dose levels of 1 mg/kg. and 100 mcg/kg.

[2] = intraperitoneal lethality (LD50); assay type: in vivo
Description: In using the compounds of this invention to inhibit prolactin secretion or to treat Parkinson's syndrome or for other pharmacologic action, a compound according to Formula Ia or Ib above in which R is C1 -C3 alkyl or allyl and R^1 is H or CH2 X where X is OCH3, SCH3, SO2 CH3, CN or CONH2, or a salt thereof with a pharmaceutically-acceptable acid, is administered to a subject suffering from Parkinsonism or in need of having his or her prolactin level reduced in an amount effective to treat Parkinsonism or to reduce prolactin. Oral administration is preferred. If parenteral administration is used, the injection is preferably by the subcutaneous route using an appropriate pharmaceutical formulation. […] In particular, with intravenous or intramuscular administration, a water soluble pharmaceutically-acceptable salt is employed. For oral administration, the compound either as the free base or in the form of a salt thereof, can also be mixed with standard pharmaceutical excipients and loaded into empty telescoping gelatin capsules or pressed into tablets. The oral dosage range is from about 0.01 to 10 mg./kg. of mammalian weight and the parenteral dose range from about 0.0025 to 2.5 mg./kg.

Row | Compound | Percent Prolactin Inhibition (prolactin; 0.5 mg/kg) [%] | Percent Prolactin Inhibition (prolactin; 5 mg/kg) [%] | % of Rats Exhibiting Turning Behavior ([1]; 1 mg./kg.) [%] | Average Number of Turns/rat ([1]; 1 mg./kg.) [turns/rat] | % of Rats Exhibiting Turning Behavior ([1]; 100 mcg./kg.) [%] | Average Number of Turns/rat ([1]; 100 mcg./kg.) [turns/rat] | also measured
1 | CCCN1CC(CSC)CC2Cc3n[nH]cc3CC21 (mixture of isomers) [trans-dl-5-n-Propyl-7-methylmercaptomethyl-4,4a,5,6,7,8,8a,9-octahydro-1H and 2H-pyrazolo[3,4-g]quinoline] | 48 | 73 |  |  |  |  | 
2 | CN1CCC[C@H]2Cc3n[nH]cc3C[C@@H]21 (relative stereo) [trans-dl-5-methyl-4,4a,5,6,7,8,8a,9-octahydro-1H-(and 2H)-pyrazolo[3,4-g]quinoline dihydrochlorides] | 42 | 84 |  |  |  |  | 
3 | C=CCN1CCC[C@H]2Cc3n[nH]cc3C[C@@H]21 (relative stereo) [Trans-dl-5-allyl-4,4a,5,6,7,8,8a,9-octahydro-2-H(and 1H)-pyrazolo[3,4-g]quinoline dihydrochloride] |  |  | 100 | 165 | 0 | 0 | 
4 | CCCN1CCC[C@H]2Cc3[nH]ncc3C[C@@H]21 (relative stereo) [trans-dl-5-n-propyl-4,4a,5,6,7,8,8a,9-octahydro-1H and 2H-pyrazolo[3,4-g]quinoline dihydrochloride] |  |  |  |  |  |  | LD50 ([2]; in vivo, ip, intraperitoneal): 100 to 300 mg/kg; deaths ([2]; intraperitoneal dosages of 300 mg./kg.): fatal; deaths ([2]; intraperitoneal dosages of 10-100 mg./kg.): no deaths
5 | CCCN1CC(CSC)CC2Cc3n[nH]cc3CC21 (mixture of isomers) [trans-dl-5-n-Propyl-7-methylmercaptomethyl-4,4a,5,6,7,8,8a,9-octahydro-1H and 2H-pyrazolo[3,4-g]quinoline dihydrochloride] |  |  | 100 | 81 | 50 | 67 | 

Reference: US4198415A, “Prolactin inhibiting octahydro pyrazolo[3,4-g]quinolines” (Eli Lilly and Company, priority 1979, dated 1980)
